The results in this text go back to US20100179137A1, “PYRIDONE COMPOUND” (priority 2007, published 2010).

The target of the first experiment is T1, rat EP4 receptor (Rattus norvegicus, UniProt P43114).
T1 construct: expressed in transfected cells; host or cells: HEK293 cells, transient transfection with Lipofectamine 2000; membrane fraction used
T1 sequence (P43114 whole entry): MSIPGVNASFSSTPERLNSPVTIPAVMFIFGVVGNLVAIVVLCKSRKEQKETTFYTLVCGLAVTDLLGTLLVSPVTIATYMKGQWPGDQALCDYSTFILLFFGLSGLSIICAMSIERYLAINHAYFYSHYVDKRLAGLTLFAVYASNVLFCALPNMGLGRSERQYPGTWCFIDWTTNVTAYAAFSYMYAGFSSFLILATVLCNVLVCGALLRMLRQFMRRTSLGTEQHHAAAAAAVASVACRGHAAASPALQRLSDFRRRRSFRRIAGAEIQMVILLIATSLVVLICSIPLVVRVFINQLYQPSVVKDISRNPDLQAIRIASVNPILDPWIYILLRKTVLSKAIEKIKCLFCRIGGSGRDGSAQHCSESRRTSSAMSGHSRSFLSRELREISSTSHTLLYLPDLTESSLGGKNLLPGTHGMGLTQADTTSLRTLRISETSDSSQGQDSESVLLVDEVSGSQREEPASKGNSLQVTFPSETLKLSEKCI
As to the kind of experiment: Evaluation test on EP4 receptor affinity in rat ([3H]PGE2 receptor binding test). Conditions: [3H]PGE2 0.3 nM, membrane fraction of rat EP4 expressing HEK293 cells. The protocol: A rat EP4 receptor cDNA was subcloned into an expression vector (pcDNA3.1-V5-His-topo, manufactured by Invitrogen Corporation) to prepare a rat EP4 expression vector. HEK293 cells were cultured in a collagen type I-treated 15 cm dish (manufactured by Asahi Techno Glass Co., Ltd.) to a confluence of 70%. An Opti-MEM culture medium at 1.2 mL/dish and a transfection reagent (Lipofectamine 2000, manufactured by Invitrogen Corporation) at 60 μL/dish were mixed, followed by being left to stand at room temperature for 5 minutes. Then, the rat EP4 receptor expression vector at 15 μg/dish was added thereto, followed by being left to stand at room temperature for 30 minutes. The liquid mixture of the transfection reagent was added into the dish, followed by culturing for 20 to 24 hours. The cell culture was carried out in a CO2 incubator (37° C., 5% CO2).
The culture medium was removed by suction, 10 mL of cooled PBS was added thereto per 15 cm dish, and the cells were scraped using a cell scraper. After washed with cooled PBS (1,200 rpm, 4° C., 5 minutes), suspended in 6 mL/dish of cooled 20 mM Tris-HCl (pH 7.4; manufactured by Nacalai Tesque Inc., 5 mM EDTA included) and homogenized using a Polytron, the homogenate was centrifuged (26,000 rpm, 20 minutes, 4° C.). The obtained precipitate was resuspended in cooled 20 mM Tris-HCl and homogenized again using a Polytron, and the homogenate was centrifuged (26,000 rpm, 20 minutes, 4° C.). The obtained precipitate was resuspended in 50 mM HEPES (pH 7.5; manufactured by Dojindo Laboratories) at 1 mL per dish, homogenized using a Polytron, and freeze-stored at −80° C. as a membrane fraction. At this time, a part thereof was used for the measurement of the protein concentration. Measurement of the protein concentration was carried out using a Protein assay stain (manufactured by Bio-Rad Laboratories) in accordance with a standard Protocol as appended in duplicate.
[^3H]PGE2 50 μL (final concentration 0.3 nM; manufactured by Perkin Elmer Co., Ltd.), 100 μL (20 μg/well) of the membrane fraction prepared from the rat EP4 expression cell, and 50 μL of a test compound were mixed in a 96-well microplate (manufactured by Sumitomo Bakelite Co., Ltd.), incubated at room temperature for 1 hour, then filtered by suction on a microplate (UniFilter-96 GF/B, manufactured by Perkin Elmer Co., Ltd.) using a cell harvester (FilterMate Harvester, manufactured by Perkin Elmer Co., Ltd.), and washed three times with 300 μL/well of a cooled assay buffer (50 mM HEPES, 10 mM MgCl2). Dilution of [^3H]PGE2 and the membrane fraction was carried out using the assay buffer, and dilution of the test compound and the unlabeled PGE2 was carried out using dimethyl sulfoxide and the assay buffer. The UniFilter-96 GF/B was treated by preliminarily washing twice with 200 μL/well of the cooled assay buffer. The UniFilter-96 GF/B after filtration was dried in a dryer overnight, 50 μL/well of a liquid scintillation cocktail (MicroScint20, manufactured by Perkin Elmer Co., Ltd.) was added thereto, and the radioactivity was then measured using a liquid scintillation counter for a microplate (TopCount, manufactured by Perkin Elmer Co., Ltd.). For measurement of the non-specific binding, an unlabeled PGE2 (final concentration 1 μM; manufactured by Cayman Chemical Company) was added. All of the measurements were carried out in duplicate, and the specific binding amount was determined by subtracting the non-specific binding amount from the total binding amount.
According to the test method as described above, the rat EP4 receptor affinity (Ki) of the compound of the present invention was measured. […] In addition, Ex means Example Compound No.
Regarding `COc1cccc(COc2c(Br)cc(Cl)cc2CCc2ccc(C(=O)O)cc2)c1` [4-(2-{3-bromo-5-chloro-2-[(3-methoxybenzyl)oxy]phenyl}ethyl)benzoic acid, reference compound], the affinity, expressed as Ki, was 27 nM.

Take `CC(C)c1cccc(OCc2c(Cl)cc(Cl)c(=O)n2CCc2ccc(C(=O)O)cc2)c1` [Example 1, 4-(2-{3,5-dichloro-6-[(3-isopropylphenoxy)methyl]-2-oxopyridin-1(2H)-yl}ethyl)benzoic acid]: the inhibitory constant (Ki) amounted to 2.8 nM.

With `COc1cccc(OCc2c(Br)cc(Br)c(=O)n2CCc2ccc(C(=O)O)cc2)c1` [Example 2, 4-(2-{3,5-dibromo-6-[(3-methoxyphenoxy)methyl]-2-oxopyridin-1(2H)-yl}ethyl)benzoic acid], the affinity, expressed as Ki, was 61 nM.

With `COc1cccc(/C=C/c2c(Br)cc(Br)c(=O)n2CCc2ccc(C(=O)O)cc2)c1` [Example 4, 4-(2-{3,5-dibromo-6-[(E)-2-(3-methoxyphenyl)vinyl]-2-oxopyridin-1(2H)-yl}ethyl)benzoic acid], the inhibition constant Ki was found to be 7.1 nM.

`COc1cccc(/C=C/c2c(Br)cc(Br)c(=O)n2CCCCCCC(=O)O)c1` [Example 15] displayed an inhibition constant Ki of 35 nM.

As for `CC(C)Oc1ccccc1OCc1c(Cl)cc(Cl)c(=O)n1CCc1ccc(C(=O)O)cc1` [Example 74], affinity was put at a Ki of 10 nM.

Consider `CCOc1ccccc1CCc1c(Cl)cc(Cl)c(=O)n1CCc1ccc(C(=O)O)cc1` [Example 90], for which the affinity corresponds to a Ki of 6.2 nM.

`CC(C)c1cccc(/C=C/c2c(Cl)cc(Cl)c(=O)n2CCc2ccc(C(=O)O)cc2)c1` [Example 91]: the Ki turned out to be 9.4 nM.

In turn, `CCCOc1cccc(/C=C/c2c(Cl)cc(Cl)c(=O)n2CCc2ccc(C(=O)O)cc2)c1` [Example 99] displayed a Ki of 1.7 nM.

For `O=C(O)c1ccc(CCn2c(/C=C/c3ccccc3OC(F)(F)F)c(Cl)cc(Cl)c2=O)cc1` [Example 106], the affinity corresponds to a Ki of 30 nM.

In turn, `O=C(O)c1ccc(CCn2c(/C=C/c3cccc(OC(F)(F)F)c3)c(C3CC3)cc(Cl)c2=O)cc1` [Example 120] yielded an inhibition constant (Ki) of 7.9 nM.

Take `O=C(O)c1ccc(CCn2c(CCc3cccc(OC(F)(F)F)c3)c(C3CC3)cc(Cl)c2=O)cc1` [Example 122]: the affinity corresponds to a Ki of 12 nM.

`CCc1cccc(/C=C/c2c(Br)ccc(=O)n2CCc2ccc(C(=O)O)cc2)c1` [Example 124] gave a Ki of 4.4 nM.

The molecule `CCc1cccc(/C=C/c2c(Cl)ccc(=O)n2CCc2ccc(C(=O)O)cc2)c1` [Example 125] had a Ki of 7.5 nM.

As to `O=C(O)c1ccc(CCn2c(/C=C/c3cccc(OC(F)(F)F)c3)c(Cl)ccc2=O)cc1` [Example 126], the Ki amounted to 4.9 nM.

`CCc1cccc(OCc2c(C3CC3)cc(Cl)c(=O)n2CCc2ccc(C(=O)O)cc2)c1` [Example 139] returned a Ki of 8.2 nM.

On to `CCCc1cccc(OCc2c(Cl)cc(Cl)c(=O)n2CCc2ccc(C(=O)O)cc2)c1` [Example 171], for which affinity was put at a Ki of 1.1 nM.

Consider `O=C(O)c1ccc(CCn2c(CCc3ccccc3OC(F)(F)F)c(Cl)cc(Cl)c2=O)cc1` [Example 350], for which the Ki was 19 nM.

A further experiment concerns hindlimb blood flow in anesthetized rat. As to the kind of experiment: Hindlimb blood flow increasing action in anesthetized rat. In kind it is in vivo. Conditions: oral, Wistar male rats. As to the method: Wistar male rats were used. The test compound was orally administered, and after 2 hours, the hindlimb blood was measured using a laser blood flow imaging apparatus (PIM II, manufactured by Integral Corporation). At 20 minutes before the measurement, 60 mg/kg of pentobarbital was intraperitoneally administered to conduct anesthesia.
For the molecule `COc1cccc(COc2c(Br)cc(Cl)cc2CCc2ccc(C(=O)O)cc2)c1` [4-(2-{3-bromo-5-chloro-2-[(3-methoxybenzyl)oxy]phenyl}ethyl)benzoic acid, reference compound], the “lowest effective dose causing a blood flow increasing action of 120% or more” value is 3 mg/kg.

In general, Ki refers to the dissociation constant of the complex between target and ligand, obtained from inhibition or displacement. A high value points to weaker binding.
